Values quoted from earlier work in publication PMC9127185, “A Pyridazinone Compound for Effectively Treating Non-alcoholic Steatohepatitis by Targeting THRβ” (Frontiers in Chemistry, 2022).

Parameters: method as in Harrison et al., 2019
Conditions: ref Harrison et al., 2019; cited from earlier work

## CC(C)c1cc(Oc2c(Cl)cc(-n3nc(C#N)c(=O)[nH]c3=O)cc2Cl)n[nH]c1=O [resmetirom, 2-[3,5-Dichloro-4-(5-Isopropyl-6-Oxo-1,6-Dihydropyridazin-3-Yloxy)phenyl]-3,5-Dioxo-2,3,4,5-Tetrahydro[1,2,4]triazine-6-Carbonitrile]
  Distribution: liver-specific distribution
  Effect on low density lipoprotein and triglyceride: reduced both low density lipoprotein and triglyceride effectively
